Results taken from patent publication US20170190671A1, “BIS(ARYL)CATECHOL DERIVATIVES AS HERBICIDES” (E I DU PONT DE NEMOURS AND COMPANY, priority 2014, published 2017).

Assays:
Assay type in all cases: in vivo
[1] = test system: sedge, umbrella (small-flower umbrella sedge, Cyperus difformis); experiment: Test B flooded paddy; details: Cyperus difformis, 336 h; 250 g ai/ha, Flood, 13 to 15 days, scale 0 (no effect) to 100 (complete control); read-out: Plant response rating, Sedge, Umbrella
Method in brief: (§1)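 In-water treatment: compound dosed into 3 cm flood over soil, water level unchanged throughout. Controls run alongside; visual assessment at day 13–15.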

[2] = test system: ducksalad (Heteranthera limosa); experiment: Test B flooded paddy; details: Heteranthera limosa, 336 h; 250 g ai/ha, Flood, 13 to 15 days, scale 0 (no effect) to 100 (complete control); read-out: Plant response rating, Ducksalad
Method in brief: as §1

[3] = test system: rice (Oryza sativa); experiment: Test B flooded paddy; details: Oryza sativa, 336 h; 250 g ai/ha, Flood, 13 to 15 days, scale 0 (no effect) to 100 (complete control); read-out: Plant response rating, Rice
Method in brief: as §1

[4] = test system: barnyardgrass (Echinochloa crus-galli); experiment: Test B flooded paddy; details: Echinochloa crus-galli, 336 h; 250 g ai/ha, Flood, 13 to 15 days, scale 0 (no effect) to 100 (complete control); read-out: Plant response rating, Barnyardgrass
Method in brief: as §1

[5] = test system: pigweed (Amaranthus retroflexus); experiment: Test A preemergence; details: Amaranthus retroflexus, pre-emergence, 240 h, 0 to 100 scale (0 no effect, 100 complete control), read-out: Pigweed plant response rating
Method in brief: (§2)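 Compounds in non-phytotoxic solvent with surfactant applied as soil spray preemergence, or postemergence to plants 2-10 cm at one- to two-leaf stage, in loam/sand. After approximately 10 days in greenhouse, injury rated visually versus untreated controls, 0 (no effect) to 100 (complete control).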

[6] = test system: giant foxtail (Setaria faberii); experiment: Test A preemergence; details: Setaria faberi, pre-emergence, 240 h, 0 to 100 scale (0 no effect, 100 complete control), read-out: Foxtail, Giant plant response rating
Method in brief: as §2

[7] = test system: Italian ryegrass (Lolium multiflorum); experiment: Test A preemergence; details: Lolium multiflorum, pre-emergence, 240 h, 0 to 100 scale (0 no effect, 100 complete control), read-out: Ryegrass, Italian plant response rating
Method in brief: as §2

[8] = test system: ragweed (common ragweed, Ambrosia elatior); experiment: Test A preemergence; details: Ambrosia artemisiifolia, pre-emergence, 240 h, 0 to 100 scale (0 no effect, 100 complete control), read-out: Ragweed plant response rating
Method in brief: as §2

[9] = test system: kochia (Kochia scoparia); experiment: Test A preemergence; details: Bassia scoparia, pre-emergence, 240 h, 0 to 100 scale (0 no effect, 100 complete control), read-out: Kochia plant response rating
Method in brief: as §2

[10] = test system: barnyardgrass (Echinochloa crus-galli); experiment: Test A preemergence; details: Echinochloa crus-galli, pre-emergence, 240 h
Method in brief: as §2

[11] = test system: wheat (Triticum aestivum); experiment: Test A postemergence; details: Triticum aestivum, post-emergence, 240 h, 0 to 100 scale, read-out: Plant response rating, Wheat
Method in brief: as §2

[12] = test system: blackgrass (Alopecurus myosuroides); experiment: Test A postemergence; details: Alopecurus myosuroides, post-emergence, 240 h, 0 to 100 scale, read-out: Plant response rating, Blackgrass
Method in brief: as §2

[13] = test system: pigweed (Amaranthus retroflexus); experiment: Test A postemergence; details: Amaranthus retroflexus, post-emergence, 240 h, 0 to 100 scale, read-out: Plant response rating, Pigweed
Method in brief: as §2

[14] = test system: giant foxtail (Setaria faberii); experiment: Test A postemergence; details: Setaria faberi, post-emergence, 240 h, 0 to 100 scale, read-out: Plant response rating, Foxtail, Giant
Method in brief: as §2

[15] = test system: corn (Zea mays); experiment: Test A postemergence; details: Zea mays, post-emergence, 240 h, 0 to 100 scale
Method in brief: as §2

[16] = test system: Italian ryegrass (Lolium multiflorum); experiment: Test A postemergence; details: Lolium multiflorum, post-emergence, 240 h, 0 to 100 scale, read-out: Plant response rating, Ryegrass, Italian
Method in brief: as §2

[17] = test system: galium (catchweed bedstraw, Galium aparine); experiment: Test A postemergence; details: Galium, post-emergence, 240 h, 0 to 100 scale, read-out: Plant response rating, Galium
Method in brief: as §2

[18] = test system: ragweed (common ragweed, Ambrosia elatior); experiment: Test A postemergence; details: Ambrosia artemisiifolia, post-emergence, 240 h, 0 to 100 scale, read-out: Plant response rating, Ragweed
Method in brief: as §2

[19] = test system: kochia (Kochia scoparia); experiment: Test A postemergence; details: Bassia scoparia, post-emergence, 240 h, 0 to 100 scale, read-out: Plant response rating, Kochia
Method in brief: as §2

[20] = test system: barnyardgrass (Echinochloa crus-galli); experiment: Test A postemergence; details: Echinochloa crus-galli, post-emergence, 240 h, 0 to 100 scale, read-out: Plant response rating, Barnyardgrass
Method in brief: as §2

With N#Cc1cccc(Oc2ncc(Cl)cn2)c1Oc1ccc(Br)cn1 [Compound 15] the pest or weed control at 250 g/ha [1] was 90%, the pest or weed control at 250 g/ha [2] was 75% and the plant injury at 250 g/ha [3] was 0%. The pest or weed control at 250 g/ha [4] was 0%, the pest or weed control at 31 g/ha ([5]; 31 g ai/ha) was 80% and the pest or weed control at 125 g/ha ([5]; 125 g ai/ha) was 100%. It also gave a pest or weed control at 31 g/ha ([6]; 31 g ai/ha) of 60%, a pest or weed control at 125 g/ha ([6]; 125 g ai/ha) of 100% and a pest or weed control at 31 g/ha ([7]; 31 g ai/ha) of 0%. For the same compound, the pest or weed control at 125 g/ha ([7]; 125 g ai/ha) was 10%, the pest or weed control at 31 g/ha ([8]; 31 g ai/ha) was 0% and the pest or weed control at 125 g/ha ([8]; 125 g ai/ha) was 0%. The pest or weed control at 31 g/ha ([9]; 31 g ai/ha) was 90%, the pest or weed control at 125 g/ha ([9]; 125 g ai/ha) was 100% and the pest or weed control at 31 g/ha ([10]; 31 g ai/ha, 0 to 100 scale (0 no effect, 100 complete control), read-out: Barnyardgrass plant response rating) was 0%. It also gave a pest or weed control at 125 g/ha ([10]; 125 g ai/ha, 0 to 100 scale, read-out: Plant response rating, Barnyardgrass) of 60%, a plant injury at 31 g/ha ([11]; 31 g ai/ha) of 0% and a plant injury at 125 g/ha ([11]; 125 g ai/ha) of 10%. The pest or weed control at 31 g/ha ([12]; 31 g ai/ha) was 0%, the pest or weed control at 125 g/ha ([12]; 125 g ai/ha) was 70% and the pest or weed control at 31 g/ha ([13]; 31 g ai/ha) was 100%. For the same compound, the pest or weed control at 125 g/ha ([13]; 125 g ai/ha) was 100%, the pest or weed control at 31 g/ha ([14]; 31 g ai/ha) was 20% and the pest or weed control at 125 g/ha ([14]; 125 g ai/ha) was 90%. The Corn plant response rating (crop injury, 0 = no effect, 100 = complete kill) at 31 g/ha ([15]; 31 g ai/ha) was 10%, the Corn plant response rating (crop injury, 0 = no effect, 100 = complete kill) at 125 g/ha ([15]; 125 g ai/ha) was 10% and the pest or weed control at 31 g/ha ([16]; 31 g ai/ha) was 0%. For the same compound, the pest or weed control at 125 g/ha ([16]; 125 g ai/ha) was 50%, the pest or weed control at 31 g/ha ([17]; 31 g ai/ha) was 50% and the pest or weed control at 125 g/ha ([17]; 125 g ai/ha) was 90%. The pest or weed control at 31 g/ha ([18]; 31 g ai/ha) was 10%, the pest or weed control at 125 g/ha ([18]; 125 g ai/ha) was 10% and the pest or weed control at 31 g/ha ([19]; 31 g ai/ha) was 40%. The pest or weed control at 125 g/ha ([19]; 125 g ai/ha) was 90%, the pest or weed control at 31 g/ha ([20]; 31 g ai/ha) was 0% and the pest or weed control at 125 g/ha ([20]; 125 g ai/ha) was 20%.
